# According to patent US8524705B2, “2-oxo-2-(2-phenyl-5,6,7,8-tetrahydro-indolizin-3-yl)-acetamide derivatives and related compounds as antifungal agents” (F2G Limited British Body Corporate, priority 2007, dated 2013):
# Experiments:
# Format in all cases: cell-based
# Conditions in all cases: banded into grades
# [1] = tested on: Aspergillus fumigatus AF293; test: Measurement of Minimum Inhibitory Concentrations (MICs), A. fumigatus
# Protocol: (§1) Between 1 and 5 mgs of compound were accurately weighed out into a sterile Eppendorf tube. The compound was dissolved in DMSO to give a solution containing 5 mg/mL. Tubes were stored at −20° C. until required. On the day of testing thawed solutions were vortex mixed to ensure homogeneity. 30 μL of solution was removed and added to 570 μL of sterile water in a separate sterile Eppendorf. The thoroughly mixed solution was used to prepare a series of doubling dilutions in water, in a deep well plate. […] replicate plates were prepared using a Minitrak by aspirating […] from each well into eleven clear polystyrene 96 well plates. Spores of Aspergillus spp. (Aspergillus fumigatus [two strains], Aspergillus terreus [two strains], Aspergillus niger and Aspergillus flavus) were harvested from cultures grown on Sabarauds agar for 5 days, and resuspended in PBS/Tween 80 to approx 1×10^7 cfu/mL. Each organism suspension was diluted in YAG medium (1% glucose, 1% ammonium chloride and 0.5% yeast extract) to 0.5-2×10^4 cfu/mL. 80 μL of an organism suspension was added to each well of the plate containing drug dilutions. This produced MIC plates with a drug range 50-0.05 mg/L and organism inocula of 1−2×10^4 cfu/mL for Aspergillus spp. All plates were incubated for 24 hrs at 35° C. Growth was assessed by monitoring the optical density at 485 nm for each well. The MIC of a compound is the lowest drug concentration that inhibits growth of an organism by >70% compared with a drug free control. MICs are recorded as mg/L. In cases where the MIC of an organism is >=0.05 mg/L the MIC is repeated using a concentration range of 0.5-0.0005 mg/L. Other growth media can be used for susceptibility testing, and the activity of the described compounds was also assessed in RPMI medium containing 2% glucose, and 0.135M MOPS buffer. MIC tests in YAG medium have more clear-cut endpoints and have slightly lower MICs than those performed in RPMI medium. The following organisms were tested: Aspergillus flavus, Aspergillus fumigatus AF293 and AF210, Aspergillus niger and Aspergillus terreus AT4 and AT49.
# [2] = tested on: Aspergillus terreus AT4; test: Measurement of Minimum Inhibitory Concentrations (MICs), A. terreus
# Protocol: as §1
# [3] = tested on: Aspergillus flavus; test: Measurement of Minimum Inhibitory Concentrations (MICs), A. flavus
# Protocol: as §1
# [4] = tested on: Aspergillus niger; test: Measurement of Minimum Inhibitory Concentrations (MICs), A. niger
# Protocol: as §1
# [5] = tested on: Aspergillus fumigatus AF210; test: Measurement of Minimum Inhibitory Concentrations (MICs), A. fumigatus 210
# Protocol: as §1
# [6] = tested on: Aspergillus terreus AT49; test: Measurement of Minimum Inhibitory Concentrations (MICs), A. terreus 49
# Protocol: as §1
# [7] = RPMI medium containing 2% glucose, 0.135M MOPS buffer
# [8] = YAG medium, 24 hrs at 35° C., >70% growth inhibition
SMILES,"MIC [1, 7]","MIC [1, 8]","MIC [2, 7]","MIC [2, 8]","MIC [3, 7]","MIC [3, 8]","MIC [4, 7]","MIC [4, 8]","MIC [5, 7]","MIC [5, 8]","MIC [6, 7]","MIC [6, 8]"
"Cc1cc(C)nc(N2CCN(c3ccc(NC(=O)C(=O)c4c(-c5ccccc5)cc5n4CCCC5)cc3Cl)CC2)c1 [Example 27, N-{3-Chloro-4-[4-(4,6-dimethyl-pyridin-2-yl)-piperazin-1-yl]-phenyl}-2-oxo-2-(2-phenyl-5,6,7,8-tetrahydro-indolizin-3-yl)-acetamide]",< 1 µg/mL,< 1 µg/mL,< 1 µg/mL,< 1 µg/mL,< 1 µg/mL,< 1 µg/mL,< 1 µg/mL,< 1 µg/mL,< 1 µg/mL,< 1 µg/mL,< 1 µg/mL,< 1 µg/mL
"O=C(Nc1cccc2ccccc12)C(=O)c1c(-c2ccccc2)cc2n1CCCC2 [Example 28, N-Naphthalen-1-yl-2-oxo-2-(2-phenyl-5,6,7,8-tetrahydro-indolizin-3-yl)-acetamide]",> 10 µg/mL,< 1 µg/mL,< 1 µg/mL,< 1 µg/mL,< 1 µg/mL,< 1 µg/mL,< 1 µg/mL,< 1 µg/mL,> 10 µg/mL,< 1 µg/mL,< 1 µg/mL,< 1 µg/mL
"Cc1cc(C)nc(N2CCN(c3ccc(NC(=O)C(=O)c4c(-c5ccccc5)cc5n4CCCC5)cc3COCCN(C)C)CC2)c1 [Example 29, N-{3-(2-Dimethylamino-ethoxymethyl)-4-[4-(4,6-dimethyl-pyridin-2-yl)-piperazin-1-yl]-phenyl}-2-oxo-2-(2-phenyl-5,6,7,8-tetrahydro-indolizin-3-yl)-acetamide]",> 10 µg/mL,> 10 µg/mL,> 10 µg/mL,1 to 10 µg/mL,> 10 µg/mL,> 10 µg/mL,1 to 10 µg/mL,> 10 µg/mL,> 10 µg/mL,1 to 10 µg/mL,1 to 10 µg/mL,1 to 10 µg/mL
"Cc1cc(C)nc(N2CCN(c3ccc(NC(=O)C(=O)c4c(-c5ccccc5)cc5n4CCCC5)c(Cl)c3)CC2)c1 [Example 30, N-{2-Chloro-4-[4-(4,6-dimethyl-pyridin-2-yl)-piperazin-1-yl]-phenyl}-2-oxo-2-(2-phenyl-5,6,7,8-tetrahydro-indolizin-3-yl)-acetamide]",< 1 µg/mL,< 1 µg/mL,< 1 µg/mL,< 1 µg/mL,< 1 µg/mL,< 1 µg/mL,< 1 µg/mL,< 1 µg/mL,< 1 µg/mL,< 1 µg/mL,< 1 µg/mL,< 1 µg/mL
"Cc1cc(C)nc(N2CCN(c3ccc(NC(=O)C(=O)c4c(-c5ccccc5)cc5n4CCCC5)cc3O)CC2)c1 [Example 31, N-{4-[4-(4,6-Dimethyl-pyridin-2-yl)-piperazin-1-yl]-3-hydroxy-phenyl}-2-oxo-2-(2-phenyl-5,6,7,8-tetrahydro-indolizin-3-yl)-acetamide]",< 1 µg/mL,< 1 µg/mL,< 1 µg/mL,< 1 µg/mL,< 1 µg/mL,< 1 µg/mL,< 1 µg/mL,< 1 µg/mL,< 1 µg/mL,< 1 µg/mL,< 1 µg/mL,< 1 µg/mL
"O=C(Nc1ccc2c(c1)OCC2)C(=O)c1c(-c2ccccc2)cc2n1CCCC2 [Example 32, N-(2,3-Dihydro-benzofuran-6-yl)-2-oxo-2-(2-phenyl-5,6,7,8-tetrahydro-indolizin-3-yl)-acetamide]",1 to 10 µg/mL,< 1 µg/mL,< 1 µg/mL,< 1 µg/mL,1 to 10 µg/mL,< 1 µg/mL,< 1 µg/mL,< 1 µg/mL,1 to 10 µg/mL,< 1 µg/mL,< 1 µg/mL,< 1 µg/mL
